# Measurements as given in PubChem BioAssay (NCI).
#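 96-well plates; 48 h exposure; 5 concentrations. Endpoints by linear interpolation between flanking doses. Not reached: highest tested concentration assigned. The concentration for full growth arrest is given as TGI.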
# What was measured:
# Assay in all cases: growth of human tumour cells (NCI), 48 h
# IGROV1 ovarian = test system: IGROV1 ovarian
# SF-268 CNS = test system: SF-268 CNS
# A549 NSCLC = test system: A549 NSCLC
# KM12 colon = test system: KM12 colon
# SK-OV-3 ovarian = test system: SK-OV-3 ovarian
# SK-MEL-28 melanoma = test system: SK-MEL-28 melanoma
# MDA-MB-435 = test system: MDA-MB-435
# HCT-15 colon = test system: HCT-15 colon
# SW-620 colon = test system: SW-620 colon
# NCI-H522 lung = test system: NCI-H522 lung
# COLO 205 colon = test system: COLO 205 colon
# UO-31 renal = test system: UO-31 renal
# A498 renal = test system: A498 renal
# HOP-92 NSCLC = test system: HOP-92 NSCLC
# PC-3 prostate = test system: PC-3 prostate
# UACC-257 melanoma = test system: UACC-257 melanoma
# MCF7 breast = test system: MCF7 breast
# OVCAR-3 ovarian = test system: OVCAR-3 ovarian
# ACHN renal = test system: ACHN renal
# NCI-H226 lung = test system: NCI-H226 lung
# NCI-H460 lung = test system: NCI-H460 lung
# K-562 leukemia = test system: K-562 leukemia
# HT29 colon = test system: HT29 colon
# RXF 393 renal = test system: RXF 393 renal
# MOLT-4 leukemia = test system: MOLT-4 leukemia
# NCI/ADR-RES ovarian = test system: NCI/ADR-RES ovarian
# DU-145 prostate = test system: DU-145 prostate
# OVCAR-4 ovarian = test system: OVCAR-4 ovarian
# SNB-19 CNS = test system: SNB-19 CNS
# SNB-75 CNS = test system: SNB-75 CNS
# CCRF-CEM leukemia = test system: CCRF-CEM leukemia
# SK-MEL-5 melanoma = test system: SK-MEL-5 melanoma
# MDA-N = test system: MDA-N
# HCC-2998 colon = test system: HCC-2998 colon
# MDA-MB-231 breast = test system: MDA-MB-231 breast
# NCI-H23 lung = test system: NCI-H23 lung
# OVCAR-5 ovarian = test system: OVCAR-5 ovarian
# U251 CNS = test system: U251 CNS
# EKVX NSCLC = test system: EKVX NSCLC
# HOP-62 NSCLC = test system: HOP-62 NSCLC
# HS 578T breast = test system: HS 578T breast
# BT-549 breast = test system: BT-549 breast
# MALME-3M melanoma = test system: MALME-3M melanoma
# SR leukemia = test system: SR leukemia
# HCT-116 colon = test system: HCT-116 colon
# LOX IMVI melanoma = test system: LOX IMVI melanoma
# M14 melanoma = test system: M14 melanoma
# T-47D breast = test system: T-47D breast
# SK-MEL-2 melanoma = test system: SK-MEL-2 melanoma
# CAKI-1 renal = test system: CAKI-1 renal
# RPMI-8226 leukemia = test system: RPMI-8226 leukemia
# SN12C renal = test system: SN12C renal
# UACC-62 melanoma = test system: UACC-62 melanoma
# SF-539 CNS = test system: SF-539 CNS
# 786-0 renal = test system: 786-0 renal
# OVCAR-8 ovarian = test system: OVCAR-8 ovarian
# SF-295 CNS = test system: SF-295 CNS
# TK-10 renal = test system: TK-10 renal
# HL-60(TB) leukemia = test system: HL-60(TB) leukemia
compound,measurement,setting,value
O=C(/C=C/c1ccc(O)c(O)c1)NC(COC(=O)/C=C/c1ccc(O)c(O)c1)C(=O)O (centres undefined),TGI,IGROV1 ovarian,> 100 µM
same,TGI,SF-268 CNS,> 100 µM
same,TGI,A549 NSCLC,> 100 µM
same,TGI,KM12 colon,> 100 µM
same,TGI,SK-OV-3 ovarian,> 100 µM
same,TGI,SK-MEL-28 melanoma,> 100 µM
same,TGI,MDA-MB-435,> 100 µM
same,TGI,HCT-15 colon,> 100 µM
same,TGI,SW-620 colon,> 100 µM
same,TGI,NCI-H522 lung,> 100 µM
same,TGI,COLO 205 colon,> 100 µM
same,TGI,UO-31 renal,> 100 µM
same,TGI,A498 renal,> 100 µM
same,TGI,HOP-92 NSCLC,> 100 µM
same,TGI,PC-3 prostate,> 100 µM
same,TGI,UACC-257 melanoma,> 100 µM
same,TGI,MCF7 breast,> 100 µM
same,TGI,OVCAR-3 ovarian,> 100 µM
same,TGI,ACHN renal,> 100 µM
same,TGI,NCI-H226 lung,> 100 µM
same,TGI,NCI-H460 lung,> 100 µM
same,TGI,K-562 leukemia,> 100 µM
same,TGI,HT29 colon,> 100 µM
same,TGI,RXF 393 renal,> 100 µM
same,TGI,MOLT-4 leukemia,> 100 µM
same,TGI,NCI/ADR-RES ovarian,> 100 µM
same,TGI,DU-145 prostate,> 100 µM
same,TGI,OVCAR-4 ovarian,> 100 µM
same,TGI,SNB-19 CNS,> 100 µM
same,TGI,SNB-75 CNS,> 100 µM
same,TGI,CCRF-CEM leukemia,> 100 µM
same,TGI,SK-MEL-5 melanoma,> 100 µM
same,TGI,MDA-N,> 100 µM
same,TGI,HCC-2998 colon,> 100 µM
same,TGI,MDA-MB-231 breast,> 100 µM
same,TGI,NCI-H23 lung,> 100 µM
same,TGI,OVCAR-5 ovarian,> 100 µM
same,TGI,U251 CNS,> 100 µM
same,TGI,EKVX NSCLC,> 100 µM
same,TGI,HOP-62 NSCLC,> 100 µM
same,TGI,HS 578T breast,> 100 µM
same,TGI,BT-549 breast,> 100 µM
same,TGI,MALME-3M melanoma,> 100 µM
same,TGI,SR leukemia,> 100 µM
same,TGI,HCT-116 colon,> 100 µM
same,TGI,LOX IMVI melanoma,> 100 µM
same,TGI,M14 melanoma,> 100 µM
same,TGI,T-47D breast,> 100 µM
same,TGI,SK-MEL-2 melanoma,> 100 µM
same,TGI,CAKI-1 renal,> 100 µM
same,TGI,RPMI-8226 leukemia,> 100 µM
same,TGI,SN12C renal,> 100 µM
same,TGI,UACC-62 melanoma,> 100 µM
same,TGI,SF-539 CNS,> 100 µM
same,TGI,786-0 renal,> 100 µM
same,TGI,OVCAR-8 ovarian,> 100 µM
same,TGI,SF-295 CNS,> 100 µM
same,TGI,TK-10 renal,> 100 µM
Cn1c(=O)c2[nH]c(CCCc3ccc([N+](=O)[O-])cc3)nc2n(C)c1=O,TGI,IGROV1 ovarian,> 100 µM
same,TGI,SF-268 CNS,> 100 µM
same,TGI,A549 NSCLC,> 100 µM
same,TGI,KM12 colon,> 100 µM
same,TGI,SK-OV-3 ovarian,> 100 µM
same,TGI,SK-MEL-28 melanoma,> 100 µM
same,TGI,MDA-MB-435,> 100 µM
same,TGI,HCT-15 colon,> 100 µM
same,TGI,NCI-H522 lung,> 100 µM
same,TGI,COLO 205 colon,> 100 µM
same,TGI,UO-31 renal,> 100 µM
same,TGI,A498 renal,> 100 µM
same,TGI,HOP-92 NSCLC,> 100 µM
same,TGI,PC-3 prostate,> 100 µM
same,TGI,UACC-257 melanoma,> 100 µM
same,TGI,MCF7 breast,> 100 µM
same,TGI,OVCAR-3 ovarian,> 100 µM
same,TGI,ACHN renal,> 100 µM
same,TGI,NCI-H226 lung,> 100 µM
same,TGI,NCI-H460 lung,> 100 µM
same,TGI,K-562 leukemia,> 100 µM
same,TGI,HT29 colon,> 100 µM
same,TGI,RXF 393 renal,> 100 µM
same,TGI,MOLT-4 leukemia,> 100 µM
same,TGI,NCI/ADR-RES ovarian,> 100 µM
same,TGI,DU-145 prostate,> 100 µM
same,TGI,OVCAR-4 ovarian,> 100 µM
same,TGI,SNB-19 CNS,> 100 µM
same,TGI,SNB-75 CNS,> 100 µM
same,TGI,SK-MEL-5 melanoma,> 100 µM
same,TGI,MDA-N,> 100 µM
same,TGI,MDA-MB-231 breast,> 100 µM
same,TGI,NCI-H23 lung,> 100 µM
same,TGI,OVCAR-5 ovarian,> 100 µM
same,TGI,U251 CNS,> 100 µM
same,TGI,EKVX NSCLC,> 100 µM
same,TGI,HOP-62 NSCLC,> 100 µM
same,TGI,HS 578T breast,> 100 µM
same,TGI,BT-549 breast,> 100 µM
same,TGI,MALME-3M melanoma,> 100 µM
same,TGI,SR leukemia,> 100 µM
same,TGI,HCT-116 colon,> 100 µM
same,TGI,LOX IMVI melanoma,> 100 µM
same,TGI,M14 melanoma,> 100 µM
same,TGI,T-47D breast,> 100 µM
same,TGI,SK-MEL-2 melanoma,> 100 µM
same,TGI,CAKI-1 renal,> 100 µM
same,TGI,RPMI-8226 leukemia,> 100 µM
same,TGI,SN12C renal,> 100 µM
same,TGI,UACC-62 melanoma,> 100 µM
same,TGI,SF-539 CNS,> 100 µM
same,TGI,786-0 renal,> 100 µM
same,TGI,OVCAR-8 ovarian,> 100 µM
same,TGI,SF-295 CNS,> 100 µM
same,TGI,TK-10 renal,> 100 µM
Cc1ccc(S(=O)(=O)ON2C(=O)c3c(N)c(C#N)c(-c4ccccc4)c(-c4ccccc4)c3C2=O)cc1,TGI,IGROV1 ovarian,30.6 µM
same,TGI,SF-268 CNS,> 100 µM
same,TGI,A549 NSCLC,43 µM
same,TGI,KM12 colon,> 100 µM
same,TGI,SK-OV-3 ovarian,> 100 µM
same,TGI,SK-MEL-28 melanoma,29.4 µM
same,TGI,MDA-MB-435,22.1 µM
same,TGI,HCT-15 colon,37.6 µM
same,TGI,SW-620 colon,30.8 µM
same,TGI,NCI-H522 lung,33.2 µM
same,TGI,COLO 205 colon,33.1 µM
same,TGI,A498 renal,44.1 µM
same,TGI,HOP-92 NSCLC,49.4 µM
same,TGI,PC-3 prostate,32.7 µM
same,TGI,UACC-257 melanoma,38 µM
same,TGI,MCF7 breast,37.4 µM
same,TGI,OVCAR-3 ovarian,27.2 µM
same,TGI,ACHN renal,31.1 µM
same,TGI,NCI-H226 lung,38.7 µM
same,TGI,NCI-H460 lung,> 100 µM
same,TGI,K-562 leukemia,> 100 µM
same,TGI,HT29 colon,42.2 µM
same,TGI,RXF 393 renal,26.5 µM
same,TGI,MOLT-4 leukemia,38.7 µM
same,TGI,NCI/ADR-RES ovarian,62.4 µM
same,TGI,DU-145 prostate,67.1 µM
same,TGI,OVCAR-4 ovarian,52.4 µM
same,TGI,HL-60(TB) leukemia,11.7 µM
same,TGI,SNB-19 CNS,> 100 µM
same,TGI,SNB-75 CNS,> 100 µM
same,TGI,CCRF-CEM leukemia,27 µM
same,TGI,SK-MEL-5 melanoma,40.6 µM
same,TGI,MDA-N,32.2 µM
same,TGI,HCC-2998 colon,89.1 µM
same,TGI,MDA-MB-231 breast,36.4 µM
same,TGI,OVCAR-5 ovarian,60 µM
same,TGI,U251 CNS,30.6 µM
same,TGI,EKVX NSCLC,29.1 µM
same,TGI,HS 578T breast,> 100 µM
same,TGI,BT-549 breast,34.8 µM
same,TGI,MALME-3M melanoma,45.8 µM
same,TGI,SR leukemia,35.9 µM
same,TGI,HCT-116 colon,33.1 µM
same,TGI,LOX IMVI melanoma,31.1 µM
same,TGI,M14 melanoma,29.5 µM
same,TGI,T-47D breast,38.1 µM
same,TGI,SK-MEL-2 melanoma,54.2 µM
same,TGI,CAKI-1 renal,29.8 µM
same,TGI,RPMI-8226 leukemia,89.6 µM
same,TGI,SN12C renal,40 µM
same,TGI,UACC-62 melanoma,33.7 µM
same,TGI,SF-539 CNS,58.2 µM
same,TGI,786-0 renal,29.8 µM
same,TGI,OVCAR-8 ovarian,46 µM
same,TGI,SF-295 CNS,92.8 µM
same,TGI,TK-10 renal,36.8 µM
